Paper PMC7180456, “Multitarget Anticancer Agents Based on Histone Deacetylase and Protein Kinase CK2 Inhibitors” (Molecules, 2020)
Like-named read-outs stand apart in the source and are kept apart here.

Assays:
human recombinant HDAC1 = target: T1, human recombinant HDAC1 (Homo sapiens, UniProt Q13547); test: HDAC1 inhibition, fluorometric method (Enzo Fluorometric Drug Discovery Assay Kit); type: biochemical; conditions: read-out: Inhibitory activity IC50 on HDAC1
T1 construct: purchased Enzo Life Sciences, Inc
Description: The inhibitory activities of the synthesized compounds were determined against CK2 and HDAC1 and the IC50 values are collected in Table 1. The activity towards human recombinant HDAC1 was tested using a fluorometric method. CK2 inhibitory activity was determined by a radiometric method, using a short peptide ([…]) as a substrate.
(§1) 15 µL of HDAC1 (0.4 µg/well) or HDAC6 (0.5 µg/well) were incubated at 37 °C for 30 minutes with 10 µL of inhibitor diluted in 5% DMSO and 25 µL of fluorogenic substrate (0.05 µL/well of 5 mM solution). Reactions were stopped with the developer and trichostatin A, diluted in buffer without BSA, and the plate was incubated at 30 °C for 45 min, followed by measuring the fluorescence (Ex. 360 nm, Em. 450 nm, Fluoroskan, Thermo Scientific).

HDAC6 = target: T2, HDAC6 (Homo sapiens, UniProt Q9UBN7); test: HDAC6 inhibition, fluorometric method (Enzo Fluorometric Drug Discovery Assay Kit); type: biochemical; conditions: read-out: Inhibitory activity IC50 on HDAC6
T2 construct: purchased Enzo Life Sciences, Inc
T2 sequence (Q9UBN7 1-1215): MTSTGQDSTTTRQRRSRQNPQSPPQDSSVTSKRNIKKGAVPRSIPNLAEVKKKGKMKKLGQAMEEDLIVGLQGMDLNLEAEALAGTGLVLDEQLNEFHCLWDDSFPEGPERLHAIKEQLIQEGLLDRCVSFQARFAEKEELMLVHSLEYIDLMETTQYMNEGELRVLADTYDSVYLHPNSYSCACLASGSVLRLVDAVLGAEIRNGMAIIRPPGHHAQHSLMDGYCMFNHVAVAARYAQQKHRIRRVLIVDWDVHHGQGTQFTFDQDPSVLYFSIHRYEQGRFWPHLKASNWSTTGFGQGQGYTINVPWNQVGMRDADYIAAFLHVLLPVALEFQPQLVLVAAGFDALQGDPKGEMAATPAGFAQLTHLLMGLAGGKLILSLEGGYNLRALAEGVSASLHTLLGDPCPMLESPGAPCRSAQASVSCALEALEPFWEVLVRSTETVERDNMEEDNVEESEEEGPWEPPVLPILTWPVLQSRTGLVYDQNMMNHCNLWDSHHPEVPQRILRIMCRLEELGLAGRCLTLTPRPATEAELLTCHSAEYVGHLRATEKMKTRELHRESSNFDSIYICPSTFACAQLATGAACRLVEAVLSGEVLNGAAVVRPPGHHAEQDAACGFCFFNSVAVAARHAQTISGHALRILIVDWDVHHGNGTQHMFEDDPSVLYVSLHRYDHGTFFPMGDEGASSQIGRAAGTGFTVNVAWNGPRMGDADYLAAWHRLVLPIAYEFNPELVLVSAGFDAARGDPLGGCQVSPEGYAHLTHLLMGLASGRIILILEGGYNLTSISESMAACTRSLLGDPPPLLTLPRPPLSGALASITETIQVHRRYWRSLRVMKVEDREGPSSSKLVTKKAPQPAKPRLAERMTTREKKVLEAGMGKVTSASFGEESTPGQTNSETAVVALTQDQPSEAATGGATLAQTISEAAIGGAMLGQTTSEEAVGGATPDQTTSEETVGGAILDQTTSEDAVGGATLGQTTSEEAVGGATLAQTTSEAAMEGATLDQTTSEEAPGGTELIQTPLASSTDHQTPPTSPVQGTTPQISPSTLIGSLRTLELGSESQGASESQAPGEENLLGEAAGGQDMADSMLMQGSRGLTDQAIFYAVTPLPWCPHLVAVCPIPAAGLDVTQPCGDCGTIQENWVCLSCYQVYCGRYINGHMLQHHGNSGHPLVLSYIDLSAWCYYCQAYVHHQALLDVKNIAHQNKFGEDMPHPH
Description: For this reason, we analyzed the activity of 15 and 19, together with other compounds from the alkyl and triazole series in HDAC6, tested using a fluorometric method (Table 1).
as §1

human recombinant CK2α = target: T3, human recombinant CK2α (Homo sapiens, UniProt P68400); test: CK2 inhibition, radiometric method with peptide substrate […]; type: biochemical; conditions: radiometric method, 20 µM ATP; read-out: Inhibitory activity IC50 on CK2
T3 construct: GST; made in house; host or cells: bacteria
Description: The activity towards human recombinant HDAC1 was tested using a fluorometric method. CK2 inhibitory activity was determined by a radiometric method, using a short peptide ([…]) as a substrate.
Recombinant human protein kinase GST-CK2 was produced in bacteria and purified as described elsewhere. […] The reaction buffer contained 20 µM [γ-32P] ATP (specific radioactivity 300–1000 cpm/pmol), 15 mM Mg^2+, 20 mM Tris–HCl pH 7.5, and 6 mM 2-mercaptoethanol. 10 µL of the assay mixture was spotted onto a square (1 cm/1 cm) of Whatman P81 paper and allowed to dry. Each square was immersed in cold 0.5% phosphoric acid, and washed three times during 10 min, allowed to dry and transferred into a vessel containing Opti-Phase liquid (scintillation solution) and radioactivity was quantified using a scintillation counter (MicroBeta, Perkin Elmer) by Cerenkov counting. All experiments were performed in triplicate. IC50 values were calculated using GraphPad Prism (version 4.0) software.

[1] = system: HL-60/adr (doxorubicin-resistant, MRP-1 overexpression); test: Cytotoxicity, trypan blue exclusion assay, 24 h; type: cell-based; conditions: Homo sapiens, HL60/ADR
Description: (§2) Taking into consideration the high abundance of CK2 kinase in leukemia and lymphomas, the ability of selected CK2-HDAC dual inhibitors to circumvent MDR was investigated in human leukemia cells of HL-60 line and its doxorubicin-resistant (HL-60/adr, MRP-1 overexpression) and vincristine-resistant (HL-60/vinc, P-gp overexpression) sublines.
(§3) Statistical significance was set at P ≤ 0.05.

[2] = system: HL-60/vinc (vincristine-resistant, P-gp overexpression); test: Cytotoxicity, trypan blue exclusion assay, 24 h; type: cell-based; conditions: Homo sapiens, HL60/vinc
Description: as §2, §3

[3] = system: leukemia cells of HL-60 line; test: Cytotoxicity, trypan blue exclusion assay, 24 h; type: cell-based; conditions: Homo sapiens
Description: as §2, §3

[4] = system: HCT-116 colon carcinoma cells; test: Cytotoxicity, trypan blue exclusion assay, 24 h; conditions: Homo sapiens
Description: (§4) Walter Berger, Institute of Cancer Research, Vienna Medical University. Human embryonal kidney cells of HEK293 line were obtained from cell culture collection of R.E. Kavetsky Institute of Experimental Pathology, Oncology and Radiobiology, National Academy of Sciences of Ukraine (Kyiv, Ukraine).
(§5) Cells were seeded (5 × 10^5/mL for leukemia cells and 1 × 10^5/mL for carcinoma cells) into 24-well tissue culture plates (Greiner Bio-one, Frickenhausen, Germany) and were permitted to adhere and grow for 24 h before the experiment. Short-term (24 h) cytotoxic effect of antitumor drugs was studied under the Evolution 300 Trino microscope (Delta Optical, Nowe Osiny, Poland) after cell staining with trypan blue dye (0.1%).
(§6) Final concentration of DMSO in cell culture was 0.5% or less.
(§7) All experiments were performed in triplicate and repeated three times. Statistical analysis of data was conducted in GraphPad Prism 7.0 Software (GraphPad Software, Inc.) using Student’s t test. Statistical significance was set at P ≤ 0.05. Evaluation of LC50 values of each compound was done by built-in functions of GraphPad Prism (non-linear regression, curve fit, [Inhibitor] vs. normalized response - Variable slope).

[5] = Cytotoxicity, trypan blue exclusion assay, 24 h (pseudonormal cells); conditions: human, HEK293 embryonic kidney cells (pseudonormal)
Description: as §4, §5, §6, §7

[6] = Table 2, trypan blue, 24 h, M ± SD, read-out: LC50 Values of Compounds for Cell Line, HL-60/adr
[7] = supplement Table 4S, M±SD, read-out: LC50 values of compounds for cell line, HL-60/adr
[8] = Table 2, trypan blue, 24 h, M ± SD, read-out: LC50 Values of Compounds for Cell Line, HL-60/vinc
[9] = supplement Table 4S, M±SD, read-out: LC50 values of compounds for cell line, HL-60/vinc
[10] = Table 2, trypan blue, 24 h, M ± SD, read-out: LC50 Values of Compounds for Cell Line, HL-60
[11] = supplement Table 4S, M±SD, read-out: LC50 values of compounds for cell line, HL-60
[12] = HCT-116, 24 h, read-out: LC50 Values of Compounds for Cell Line, HCT-116
[13] = LC50 Values of Compounds for Cell Line, HEK293, Table 2, trypan blue, 24 h, M ± SD
[14] = LC50 values of compounds for cell line, HEK293, supplement Table 4S, M±SD

T3 sequence (P68400 whole entry): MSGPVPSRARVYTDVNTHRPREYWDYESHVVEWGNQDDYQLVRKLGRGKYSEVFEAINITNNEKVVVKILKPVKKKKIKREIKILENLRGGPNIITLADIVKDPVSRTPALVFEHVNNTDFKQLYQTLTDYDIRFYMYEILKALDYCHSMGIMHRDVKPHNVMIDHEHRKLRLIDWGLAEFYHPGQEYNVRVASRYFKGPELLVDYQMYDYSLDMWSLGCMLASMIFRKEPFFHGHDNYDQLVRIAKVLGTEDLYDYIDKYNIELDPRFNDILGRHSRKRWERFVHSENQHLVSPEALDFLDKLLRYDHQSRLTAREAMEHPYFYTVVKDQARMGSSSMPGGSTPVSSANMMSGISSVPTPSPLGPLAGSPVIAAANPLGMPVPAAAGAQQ
T1 sequence (Q13547 whole entry): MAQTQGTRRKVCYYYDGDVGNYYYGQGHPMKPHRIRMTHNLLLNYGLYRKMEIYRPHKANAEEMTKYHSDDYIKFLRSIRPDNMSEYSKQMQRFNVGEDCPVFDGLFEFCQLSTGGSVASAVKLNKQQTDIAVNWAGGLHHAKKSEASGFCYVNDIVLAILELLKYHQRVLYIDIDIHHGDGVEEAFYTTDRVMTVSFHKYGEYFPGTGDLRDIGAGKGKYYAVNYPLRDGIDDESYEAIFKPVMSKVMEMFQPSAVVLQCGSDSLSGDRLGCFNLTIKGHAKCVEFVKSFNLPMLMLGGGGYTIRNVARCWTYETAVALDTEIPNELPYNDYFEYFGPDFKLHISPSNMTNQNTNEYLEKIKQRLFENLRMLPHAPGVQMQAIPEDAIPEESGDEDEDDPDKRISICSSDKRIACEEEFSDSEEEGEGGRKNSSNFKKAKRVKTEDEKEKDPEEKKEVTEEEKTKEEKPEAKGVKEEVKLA

Compound: O=C(NO)c1ccc(Cn2nc3c(Br)c(Br)c(Br)c(Br)c3n2)cc1 [Compound 15a, N-Hydroxy-4-((tetrabromo-2H-benzo[d][1,2,3]triazol-2-yl)methyl)benzamide]
- IC50 (human recombinant HDAC1): 8.5 µM
- IC50 (HDAC6): 11 µM
- IC50 (human recombinant CK2α): 15 µM
- CC50 [1, 6]: 32.4 ± 3.44 µM
- CC50 [1, 7]: > 30 µM
- CC50 [2, 8]: 36.6 ± 4.74 µM
- CC50 [2, 9]: > 30 µM
- CC50 [3, 10]: 34.4 ± 7.89 µM
- CC50 [3, 11]: > 30 µM
- CC50 [4, 12]: 8.67 ± 1.02 µM
- CC50 at 24 h [5, 13]: 33.7 ± 7.52 µM
- CC50 at 24 h [5, 14]: > 30 µM

Compound: CN(C)c1nc2c(Br)c(Br)c(Br)c(Br)c2n1Cc1ccc(C(=O)NO)cc1 [Compound 19, N-Hydroxy-4-((4,5,6,7-tetrabromo-2-(dimethylamino)-1H-benzo[d]imidazol-1-yl)methyl)benzamide]
- IC50 (human recombinant HDAC1): 9.45 µM
- IC50 (HDAC6): 20.6 µM
- IC50 (human recombinant CK2α): 7.15 µM
- CC50 [1, 6]: 32.3 ± 5.32 µM
- CC50 [1, 7]: > 30 µM
- CC50 [2, 8]: 21.7 ± 3.39 µM
- CC50 [2, 9]: 26.6 µM
- CC50 [3, 11]: > 30 µM
- CC50 [4, 12]: 11.3 ± 1.01 µM
- CC50 at 24 h [5, 13]: 33.4 ± 11.8 µM
- CC50 at 24 h [5, 14]: 24.5 µM

Compound: CN(C)c1nc2c(Br)c(Br)c(Br)c(Br)c2n1CCc1cn(CCC(=O)NO)nn1 [Compound 7c, N-Hydroxy-3-(4-(2-(4,5,6,7-tetrabromo-2-(dimethylamino)-1H-benzo[d]imidazol-1-yl)ethyl)-1H-1,2,3-triazol-1-yl)propanamide]
- IC50 (human recombinant HDAC1): 13.3 µM
- IC50 (HDAC6): 30.7 µM
- IC50 (human recombinant CK2α): 12.5 µM
- CC50 [1, 6]: 18.6 ± 2.09 µM
- CC50 [1, 7]: 16.2 µM
- CC50 [2, 8]: 49.5 ± 9.47 µM
- CC50 [2, 9]: 17.6 µM
- CC50 [3, 10]: 24 ± 8.66 µM
- CC50 [3, 11]: 7.67 µM
- CC50 [4, 12]: 16.9 ± 3.9 µM
- CC50 ([4]; HCT-116, read-out: LC50 values of compounds for cell line, HCT-116): 4.22 µM
- CC50 at 24 h [5, 13]: 42.7 ± 8.65 µM
- CC50 at 24 h [5, 14]: 23.3 µM
